Assay results reported in ChEMBL document CHEMBL5625160, “Development of a next-generation endogenous OCT4 inducer and its anti-aging effect in vivo” (Eur J Med Chem, 2023).
Active and inactive are the calls of the source. The calls are words filed in the database; no cut-off is given here.

Tests used:
[1] = target: POU domain, class 5, transcription factor 1 (Homo sapiens) (UniProt Q01860); assay: Induction of OCT4 (unknown origin) expressed in human NCCIT reporter cells assessed as increase in luminescence signal measured after 24 hrs by luciferase reporter assay; format: cell-based
[2] = target: Homeobox protein NANOG (Homo sapiens) (UniProt Q9H9S0); assay: Induction of NANOG (unknown origin) expressed in human NCCIT reporter cells assessed as increase in luminescence signal measured after 24 hrs by luciferase reporter assay; format: cell-based
[3] = tested on: NCCIT; assay: Cytotoxicity against human NCCIT cells assessed as inhibition of cell viability measured after 48 hrs by MTT assay; format: functional, cell-based
[4] = target: POU domain, class 5, transcription factor 1 (Homo sapiens) (UniProt Q01860); assay: Induction of OCT4 (unknown origin) expressed in HEK cells assessed as increase in luminescence signal measured after 24 hrs by luciferase reporter assay; format: cell-based
[5] = Cytotoxicity against human HFF cells assessed as inhibition of cell viability measured after 48 hrs by MTT assay; format: toxicity, cell-based
[6] = tested on: Fibroblast; assay: Reprogramming activity in human Fibroblast cells harbouring LTR7-GFP assessed as induction of iPSCs from somatic cells by measuring TRA-160 positive colonies at 5 uM measured after 7 days in presence of SOX2/KLF4/L-MYC/LIN28 (SKML); format: functional, cell-based; conditions: time 7.0 day
[7] = tested on: Caenorhabditis elegans; assay: Anti-aging activity in wild type Caenorhabditis elegans N2 assessed as increase in life extension at 0.5 uM measured upto 40 days; format: functional, organism-based; conditions: time <= 40.0 day
[8] = tested on: Fibroblast; assay: Upregulation of OCT4 level in human Fibroblast cells measured after 5 days by immunoblot analysis; format: functional, cell-based; conditions: dose 5-50 µM, time 5.0 day
[9] = Upregulation of OCT4 expression in human NCCIT cells assessed as fold increase at 5 to 10 uM measured after 2 days by qRT-PCR analysis; format: functional; conditions: dose 5-10 µM; time 2 day
[10] = tested on: NCCIT; assay: Upregulation of E-cadherin level in human NCCIT cells by fluorescence-activated cell sorter analysis; format: functional, cell-based
[11] = Upregulation of NANOG expression in human NCCIT cells assessed as fold increase at 5 to 10 uM measured after 2 days by qRT-PCR analysis; format: functional; conditions: dose 5-10 µM; time 2 day
[12] = tested on: NCCIT; assay: Upregulation of OCT4 level in human NCCIT cells measured after 5 days by immunoblot analysis; format: functional, cell-based; conditions: dose 1-50 µM, time 5.0 day
[13] = tested on: Drosophila; assay: Anti-aging activity in Drosophila assessed as increase in life span at 20 uM measured upto 60 days relative to control; format: functional; conditions: 1440 h, time <= 60 day
[14] = tested on: Drosophila; assay: Anti-aging activity in Drosophila assessed as increase in life span at late adulthood at 20 uM measured upto 60 days; format: functional, organism-based; conditions: time <= 60.0 day
[15] = tested on: NCCIT; assay: Upregulation of OCT4 level in human NCCIT cells by fluorescence-activated cell sorter analysis; format: functional, cell-based
[16] = tested on: Drosophila; assay: Anti-aging activity in Drosophila assessed as increase in life span at early adulthood at 20 uM measured upto 60 days relative to control; format: functional; conditions: 1440 h, time <= 60 day
[17] = tested on: NCCIT; assay: Upregulation of NANOG level in human NCCIT cells by fluorescence-activated cell sorter analysis; format: functional, cell-based
[18] = tested on: HFF; assay: Effect on OCT expression in human HFF cells; format: functional, cell-based
[19] = target: POU domain, class 5, transcription factor 1 (Homo sapiens) (UniProt Q01860); assay: Induction of OCT4 in human HFF cells measured after 8 hrs; format: cell-based; conditions: filed as activator
[20] = target: Splicing factor 3B subunit 1 (Homo sapiens) (UniProt O75533); assay: Thermal stabilization of SF3B1 (unknown origin) assessed as increase in denaturation temperature by thermal shift assay (reference value: 58.5+/-2.05 degreeC)
[21] = tested on: Fibroblast; assay: Reduction in OCT4 expression in SF3B1 siRNA human Fibroblast cells harbouring LTR7-EGFP; format: functional, cell-based
[22] = tested on: NCCIT; assay: Upregulation of SOX2 expression in human NCCIT cells at 5 to 10 uM measured after 2 days by qRT-PCR analysis; format: functional, cell-based; conditions: dose 5-10 µM, time 2.0 day
[23] = tested on: Caenorhabditis elegans; assay: Anti-aging activity in Caenorhabditis elegans […] assessed as induction of daf-16 nuclear translocation measured after 24 hrs; format: functional, organism-based
[24] = tested on: NCCIT; assay: Upregulation of SOX2 level in human NCCIT cells by fluorescence-activated cell sorter analysis; format: functional, cell-based
[25] = tested on: NCCIT; assay: Upregulation of STAT3 expression in human NCCIT cells at 5 to 10 uM measured after 2 days by qRT-PCR analysis; format: functional, cell-based; conditions: dose 5-10 µM, time 2.0 day
[26] = tested on: HFF; assay: Effect on NANOG expression in human HFF cells; format: functional, cell-based
[27] = tested on: Caenorhabditis elegans; assay: Anti-aging activity in wild type Caenorhabditis elegans N2 assessed as increase in survival rate measured after 48 hrs under oxidative stress; format: functional, organism-based
[28] = tested on: NCCIT; assay: Upregulation of REX1 expression in human NCCIT cells at 5 to 10 uM measured after 2 days by qRT-PCR analysis; format: functional, cell-based; conditions: dose 5-10 µM, time 2.0 day
[29] = tested on: NCCIT; assay: Upregulation of E-cadherin expression in human NCCIT cells at 5 to 10 uM measured after 2 days by qRT-PCR analysis; format: functional, cell-based; conditions: dose 5-10 µM, time 2.0 day
[30] = tested on: HFF; assay: Effect on SOX2 expression in human HFF cells; format: functional, cell-based
[31] = tested on: Drosophila; assay: Anti-aging activity in Drosophila assessed as extension of life span; format: functional, organism-based
[32] = target: Albumin (Homo sapiens, UniProt P02768); assay: Protein binding in serum albumin (unknown origin); format: ADME; conditions: read-out: PB (converted)
[33] = tested on: Drosophila; assay: Anti-aging activity in Drosophila; format: functional, organism-based
[34] = Membrane permeability of the compound; format: ADME

Chain of Homeobox protein NANOG (Homo sapiens) (Q9H9S0 whole entry): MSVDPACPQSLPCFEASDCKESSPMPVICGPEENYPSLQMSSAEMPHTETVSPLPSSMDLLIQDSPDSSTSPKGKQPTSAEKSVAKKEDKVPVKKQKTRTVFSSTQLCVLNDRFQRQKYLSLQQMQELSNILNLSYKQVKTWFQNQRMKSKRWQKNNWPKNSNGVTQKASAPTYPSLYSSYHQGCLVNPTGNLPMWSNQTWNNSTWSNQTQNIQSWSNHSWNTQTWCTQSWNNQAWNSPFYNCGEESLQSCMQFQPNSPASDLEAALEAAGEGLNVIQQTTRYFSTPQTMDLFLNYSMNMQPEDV
Chain of POU domain, class 5, transcription factor 1 (Homo sapiens) (Q01860 whole entry, the tested form may be a part): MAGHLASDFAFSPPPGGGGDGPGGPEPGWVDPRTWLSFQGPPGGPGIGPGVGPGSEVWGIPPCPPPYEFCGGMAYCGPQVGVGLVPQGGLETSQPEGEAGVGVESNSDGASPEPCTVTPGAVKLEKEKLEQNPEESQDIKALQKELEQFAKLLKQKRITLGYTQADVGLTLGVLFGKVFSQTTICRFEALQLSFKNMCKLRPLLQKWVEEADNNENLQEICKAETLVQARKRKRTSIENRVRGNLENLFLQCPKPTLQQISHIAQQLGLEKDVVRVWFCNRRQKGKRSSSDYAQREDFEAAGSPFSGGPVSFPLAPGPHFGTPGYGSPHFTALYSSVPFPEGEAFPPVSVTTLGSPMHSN
Chain of Splicing factor 3B subunit 1 (Homo sapiens) (O75533 whole entry): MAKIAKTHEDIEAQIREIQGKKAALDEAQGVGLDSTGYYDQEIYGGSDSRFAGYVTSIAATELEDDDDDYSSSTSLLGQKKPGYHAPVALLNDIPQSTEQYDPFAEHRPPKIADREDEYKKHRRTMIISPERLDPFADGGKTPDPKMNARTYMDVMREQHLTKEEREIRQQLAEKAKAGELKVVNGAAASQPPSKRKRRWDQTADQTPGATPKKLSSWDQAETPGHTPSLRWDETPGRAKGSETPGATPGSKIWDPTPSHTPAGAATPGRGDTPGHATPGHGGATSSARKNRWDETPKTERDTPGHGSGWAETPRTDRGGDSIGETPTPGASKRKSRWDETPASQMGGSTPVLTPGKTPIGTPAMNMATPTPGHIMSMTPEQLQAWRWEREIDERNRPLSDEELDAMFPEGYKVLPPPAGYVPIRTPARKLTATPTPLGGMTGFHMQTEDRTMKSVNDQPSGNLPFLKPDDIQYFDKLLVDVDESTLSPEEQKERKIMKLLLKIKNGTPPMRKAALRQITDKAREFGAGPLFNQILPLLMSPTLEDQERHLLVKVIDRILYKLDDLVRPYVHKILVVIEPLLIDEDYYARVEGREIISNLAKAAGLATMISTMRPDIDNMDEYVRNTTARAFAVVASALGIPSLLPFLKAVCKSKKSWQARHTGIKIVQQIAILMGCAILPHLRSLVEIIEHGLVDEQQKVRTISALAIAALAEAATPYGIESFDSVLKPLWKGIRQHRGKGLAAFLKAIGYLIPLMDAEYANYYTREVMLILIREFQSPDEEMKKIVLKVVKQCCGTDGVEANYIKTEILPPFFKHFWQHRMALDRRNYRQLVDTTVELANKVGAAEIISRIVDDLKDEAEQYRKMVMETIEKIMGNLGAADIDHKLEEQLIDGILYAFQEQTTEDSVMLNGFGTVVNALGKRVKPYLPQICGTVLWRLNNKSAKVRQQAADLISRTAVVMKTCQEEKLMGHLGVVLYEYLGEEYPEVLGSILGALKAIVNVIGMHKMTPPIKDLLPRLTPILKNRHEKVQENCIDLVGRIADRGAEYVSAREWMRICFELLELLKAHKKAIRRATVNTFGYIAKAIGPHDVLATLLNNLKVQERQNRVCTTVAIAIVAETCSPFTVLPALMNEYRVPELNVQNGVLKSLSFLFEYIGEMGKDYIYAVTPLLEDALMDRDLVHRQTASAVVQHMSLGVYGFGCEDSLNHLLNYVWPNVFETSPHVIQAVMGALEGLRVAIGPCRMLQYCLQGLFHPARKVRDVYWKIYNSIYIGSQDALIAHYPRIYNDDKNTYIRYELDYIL
Chain of Albumin (P02768 whole entry): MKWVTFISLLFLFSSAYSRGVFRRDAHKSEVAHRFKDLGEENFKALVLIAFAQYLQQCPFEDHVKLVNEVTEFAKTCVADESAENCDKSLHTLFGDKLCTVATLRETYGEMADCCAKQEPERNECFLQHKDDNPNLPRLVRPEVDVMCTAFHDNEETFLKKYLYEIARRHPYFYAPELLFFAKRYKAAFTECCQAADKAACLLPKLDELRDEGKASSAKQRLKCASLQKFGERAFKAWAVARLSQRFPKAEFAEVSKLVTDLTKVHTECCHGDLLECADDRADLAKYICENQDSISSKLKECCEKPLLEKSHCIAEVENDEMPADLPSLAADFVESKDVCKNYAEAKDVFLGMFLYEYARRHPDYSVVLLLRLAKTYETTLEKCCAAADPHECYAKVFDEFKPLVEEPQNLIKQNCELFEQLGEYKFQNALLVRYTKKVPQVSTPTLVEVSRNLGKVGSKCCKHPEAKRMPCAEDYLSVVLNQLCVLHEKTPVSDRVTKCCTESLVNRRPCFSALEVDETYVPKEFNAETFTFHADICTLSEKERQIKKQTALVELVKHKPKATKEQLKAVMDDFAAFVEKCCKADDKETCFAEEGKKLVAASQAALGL

## CCOC(=O)c1csc(Nc2ccc(O)cc2)n1
[1]
  Activity: inactive
[2]
  Activity: inactive
[3]
  IC50: > 20 µM
[4]
  Activity: inactive
[5]
  IC50 at 48 h: > 20 µM

## CCOC(=O)c1csc(Nc2ccc(Br)cc2C)n1
[1]
  Activity: inactive
[2]
  Activity: inactive
[3]
  IC50: > 20 µM
[4]; filed as activator
  Activity: Active
[5]
  IC50 at 48 h: > 20 µM

## Cc1ccc(Nc2nc(C(C)(C)C)cs2)c(C)c1
[3]
  IC50: > 20 µM
[5]
  IC50 at 48 h: > 20 µM

## CC(C)(C)c1csc(Nc2ccc(Cl)cc2)n1
[6]
  Activity: inactive
[3]
  IC50: 19.7 µM
[5]
  IC50 at 48 h: > 20 µM

## Clc1ccc(Nc2nc(-c3ccccc3)cs2)cc1
[3]
  IC50: > 20 µM
[5]
  IC50 at 48 h: > 20 µM

## CCOC(=O)c1csc(Nc2ccc(OC)cc2OC)n1
[1]
  Activity: inactive
[2]
  Activity: inactive
[3]
  IC50: > 20 µM
[4]
  Activity: inactive
[5]
  IC50 at 48 h: > 20 µM

## Cc1ccc(-c2cn3cc(C)ccc3n2)cc1
[6]
  Activity: Active

## CCOC(=O)c1csc(Nc2ccc([N+](=O)[O-])cc2)n1
[1]
  Activity: inactive
[2]
  Activity: inactive
[3]
  IC50: > 20 µM
[4]; filed as activator
  Activity: Active
[5]
  IC50 at 48 h: > 20 µM

## CCOC(=O)c1csc(Nc2ccc(F)cc2F)n1
[1]
  Activity: inactive
[2]
  Activity: inactive
[3]
  IC50: > 20 µM
[4]; filed as activator
  Activity: Active
[5]
  IC50 at 48 h: > 20 µM

## CCOC(=O)c1csc(Nc2ccc(C)cc2)n1
[1]
  Activity: inactive
[2]
  Activity: inactive
[3]
  IC50: > 20 µM
[4]
  Activity: inactive
[5]
  IC50 at 48 h: > 20 µM

## CC(C)(C)c1csc(Nc2ccccc2)n1
[3]
  IC50: > 20 µM
[5]
  IC50 at 48 h: > 20 µM

## Cc1ccc(Nc2nc(C(C)(C)C)cs2)cc1
[3]
  IC50: > 20 µM
[5]
  IC50 at 48 h: > 20 µM

## Cc1cccc(Nc2nc(C(C)(C)C)cs2)c1
[3]
  IC50: 5.96 µM
[5]
  IC50 at 48 h: 11.6 µM

## CCOC(=O)c1csc(Nc2cc(OC)ccc2OC)n1
[1]
  Activity: inactive
[2]
  Activity: inactive
[3]
  IC50: > 20 µM
[4]
  Activity: inactive
[5]
  IC50 at 48 h: > 20 µM

## Cc1cccc(Nc2nc(C(C)(C)C)cs2)c1C
[1]; filed as activator
  Activity: Active
[7]
  Activity: Active
[8]
  Activity: Dose-Dependent Effect
[2]; filed as activator
  Activity: Active
[9]
  fold change (FC): 3
[10]
  Activity: Active
[6]
  Activity: Active
[11]
  fold change (FC): 30
[12]
  Activity: Dose-Dependent Effect
[13]
  ILS at 20 µM: 5%
[14]
  ILS: inactive
[15]
  Activity: Active
[3]
  IC50: 10.9 µM
[16]
  ILS at 20 µM: 10%
[17]
  Activity: Active
[18]
  Activity: Active
[19]
  Activity: Active
[20]
  T: 64.9 °C
[21]
  Activity: Active
[22]
  Activity: Active
[23]
  Activity: Active
[24]
  Activity: Active
[25]
  Activity: Active
[4]; filed as activator
  Activity: Active
[26]
  Activity: Active
[27]
  Activity: Active
[28]
  Activity: Active
[29]
  Activity: Active
[5]
  IC50 at 48 h: > 20 µM
[30]
  Activity: Active

## CCOC(=O)c1csc(Nc2ccc(C(=O)O)cc2)n1
[1]; filed as activator
  Activity: Active
[2]; filed as activator
  Activity: Active
[6]
  Activity: Active
[3]
  IC50: > 20 µM
[4]; filed as activator
  Activity: Active
[5]
  IC50 at 48 h: > 20 µM

## Cc1ccccc1Nc1nc(C(C)(C)C)cs1
[3]
  IC50: 9.38 µM
[5]
  IC50 at 48 h: > 20 µM

## Clc1ccc(Nc2nc(-c3ccc4ccccc4c3)cs2)cc1
[3]
  IC50: > 20 µM
[5]
  IC50 at 48 h: > 20 µM

## C=C[C@@]1(C)CC(=O)[C@]2(O)[C@@]3(C)[C@@H](O)CCC(C)(C)[C@@H]3[C@H](O)[C@H](OC(C)=O)[C@@]2(C)O1
[31]
  Activity: inactive

## CCOC(=O)c1csc(Nc2cc(F)ccc2F)n1
[1]
  Activity: inactive
[2]
  Activity: inactive
[3]
  IC50: > 20 µM
[4]; filed as activator
  Activity: Active
[5]
  IC50 at 48 h: > 20 µM

## CCOC(=O)c1csc(Nc2ccc(C)cc2Br)n1
[1]
  Activity: inactive
[2]
  Activity: inactive
[6]
  Activity: Active
[3]
  IC50: > 20 µM
[4]; filed as activator
  Activity: Active
[5]
  IC50 at 48 h: > 20 µM

## CCOC(=O)c1csc(Nc2ccc(Cl)cc2OC)n1
[1]
  Activity: inactive
[2]
  Activity: inactive
[3]
  IC50: > 20 µM
[4]
  Activity: inactive
[5]
  IC50 at 48 h: > 20 µM

## CCOC(=O)c1csc(Nc2ccc(OC)cc2)n1
[1]
  Activity: inactive
[2]
  Activity: inactive
[3]
  IC50: > 20 µM
[4]
  Activity: inactive
[5]
  IC50 at 48 h: > 20 µM

## CCOC(=O)c1csc(Nc2cc(C(F)(F)F)cc(C(F)(F)F)c2)n1
[1]
  Activity: inactive
[2]
  Activity: inactive
[3]
  IC50: > 20 µM
[4]
  Activity: inactive
[5]
  IC50 at 48 h: > 20 µM

## CCOC(=O)c1csc(Nc2ccc(Cl)cc2)n1
[1]
  Activity: inactive
[2]
  Activity: inactive
[32]
  fraction unbound: 0.1
[33]
  Activity: inactive
[6]
  Activity: Active
[34]
  permeability: 70%
[20]
  T: 64.7 °C
[4]
  Activity: inactive

## CCOC(=O)c1csc(Nc2ccc(C#N)cc2)n1
[1]
  Activity: inactive
[2]
  Activity: inactive
[3]
  IC50: > 20 µM
[4]
  Activity: inactive
[5]
  IC50 at 48 h: > 20 µM
